Values quoted from earlier work as cited in PMC11286589, “Population pharmacokinetics and exposure–response analyses of SAF-189s in Chinese patients with ALK+/ROS1+ non-small cell lung cancer” (Frontiers in Pharmacology, 2024).

Details: cited from earlier work

| SMILES | incidence rate of hyperglycemia (FIH trial, ref Khozin et al., 2015) | effect on glucose tolerance in patients (current clinical use, ref Camidge et al., 2018, Seto et al., 2019, Wolf et al., 2022) |
| --- | --- | --- |
| Cc1cc(Nc2ncc(Cl)c(Nc3ccccc3S(=O)(=O)C(C)C)n2)c(OC(C)C)cc1C1CCNCC1 [ceritinib] | 49% |  |
| C[C@@H](Oc1cc(-c2cnn(C3CCNCC3)c2)cnc1N)c1c(Cl)ccc(F)c1Cl [crizotinib] |  | no effects on glucose tolerance |
